± gives the expanded uncertainty stated by the source.
Experiment: wn = mass fraction of the nth substance listed
Details: 101 kPa, Liquid, Vibrating tube method

mass density (293.15 K, w1 = 0.02): 1012.4 ± 0.8 kg/m3
mass density (293.15 K, w1 = 0.04): 1026.7 ± 0.8 kg/m3
mass density (303.15 K, w1 = 0.02): 1012.4 ± 0.8 kg/m3
mass density (303.15 K, w1 = 0.04): 1026.7 ± 0.8 kg/m3
mass density (313.15 K, w1 = 0.02): 1006.1 ± 0.8 kg/m3
SMILES: [Cl-].[Na+] [sodium chloride] + O

Reference: the NIST ThermoML archive (doi:10.1016/j.fluid.2012.04.003)
